Assay results taken from ChEMBL document CHEMBL5104126, “Discovery of 2,3-dihydro-1H-pyrrolo[3,4-b]quinolin-1-one derivatives as possible antileishmanial agents” (RSC Med Chem, 2022).
In brackets after ≈: the same amount, converted by molar mass. Activity calls are given as the source filed them. No cut-off for these calls is given here.

What was measured:
Leishmania donovani [1] = test: Antileishmanial activity against Leishmania donovani MHOM/IN/80/Dd8 promastigotes harboring luciferase gene infected in mouse J774 cells assessed as inhibition of parasite viability at 25 uM incubated for 72 hrs by Steady-Glo reagent based luciferase assay relative to control; assay type: functional; settings: MHOM/IN/80/Dd8, J774
Leishmania donovani [2] = test: Induction of apoptosis in Leishmania donovani MHOM/IN/80/Dd8 promastigotes assessed as ladder like DNA at 50 uM incubated for 72 hrs by agarose gel electrophoresis; assay type: functional, organism-based
[3] = Cytotoxicity against human HepG2 cells assessed as inhibition of cell viability incubated for 72 hrs by MTT assay; assay type: toxicity, cell-based
Leishmania donovani [4] = test: Induction of apoptosis in Leishmania donovani MHOM/IN/80/Dd8 promastigotes assessed as increase in cytochrome c level in cytosol at 50 uM incubated upto 48 hrs by immunoblot analysis; assay type: functional, organism-based; settings: TDE = time-dependent effect
[5] = Metabolic stability in mouse liver microsomes assessed as intrinsic clearance at 10 ug/ml measured per mg protein incubated for 1 hrs in presence of NADPH by UPLC analysis; assay type: ADME, Microsome; settings: dose 10 µg/ml, read-out: CLH
Leishmania donovani [6] = test: Induction of cell cycle arrest in Leishmania donovani MHOM/IN/80/Dd8 promastigotes assessed as increase in subG0/G1 phase at 50 uM incubated for 72 hrs by PI staining based flow cytometry; assay type: functional
[7] = Selectivity index, ratio of CC50 for cytotoxicity against mouse macrophage J774 cells to IC50 for antileishmanial activity against Leishmania donovani MHOM/IN/80/Dd8 amastigotes harboring luciferase gene infected in mouse J774 cells; assay type: toxicity, cell-based; settings: read-out: Ratio CC50/IC50
Leishmania donovani [8] = test: Antileishmanial activity against Leishmania donovani MHOM/IN/80/Dd8 promastigotes harboring luciferase gene infected in mouse J774 cells assessed as inhibition of parasite viability incubated for 72 hrs by Steady-Glo reagent based luciferase assay relative to control; assay type: functional, organism-based; settings: MHOM/IN/80/Dd8, J774, 72 h
Leishmania donovani [9] = test: Antileishmanial activity against Leishmania donovani MHOM/IN/80/Dd8 amastigotes harboring luciferase gene infected in mouse J774 cells assessed as inhibition of parasite viability incubated for 72 hrs by Steady-Glo reagent based luciferase assay relative to control; assay type: functional, organism-based; settings: MHOM/IN/80/Dd8, J774, 72 h
[10] = Stability of compound in mouse plasma assessed as parent compound remaining at 10 ug/ml incubated for 2 hrs by UPLC analysis; assay type: ADME, cell-free; settings: at 10 µg/mL, read-out: Stability
[11] = Stability of compound in SGF assessed as parent compound remaining at 10 ug/ml incubated for 2 hrs by UPLC analysis; assay type: ADME; settings: at 10 µg/mL, read-out: Stability
[12] = Octanol/water partition coefficient, logP of the compound incubated for 24 hrs by shake flask method; assay type: physicochemical
[13] = Metabolic stability in mouse liver microsomes assessed as parent compound remaining at 10 ug/ml incubated for 1 hrs in presence of NADPH by UPLC analysis; assay type: ADME, Microsome; settings: at 10 µg/mL, read-out: Stability
Leishmania donovani [14] = test: Antileishmanial activity against Leishmania donovani MHOM/IN/80/Dd8 promastigotes infected in Balb/c mouse assessed as inhibition organ parasite burden in liver at 12.5 mg/kg, ip for 7 days by Giemsa staining based microscopy; assay type: functional; settings: MHOM/IN/80/Dd8, 168 h, time 7 day
Leishmania donovani [15] = test: Antileishmanial activity against Leishmania donovani MHOM/IN/80/Dd8 promastigotes infected in Balb/c mouse assessed as inhibition organ parasite burden in spleen at 6.25 mg/kg, ip for 7 days by Giemsa staining based microscopy; assay type: functional; settings: MHOM/IN/80/Dd8, 168 h, time 7 day
[16] = Metabolic stability in mouse liver microsomes assessed as half life at 10 ug/ml incubated for 1 hrs in presence of NADPH by UPLC analysis; assay type: ADME, Microsome; settings: dose 10 µg/ml
Leishmania donovani [17] = test: Induction of apoptosis in Leishmania donovani MHOM/IN/80/Dd8 promastigotes assessed as breakdown of nuclear DNA at 50 uM incubated for 72 hrs by agarose gel electrophoresis; assay type: functional, organism-based
[18] = Selectivity index, ratio of CC50 for cytotoxicity against human HepG2 cells to IC50 for antileishmanial activity against Leishmania donovani MHOM/IN/80/Dd8 amastigotes harboring luciferase gene infected in mouse J774 cells; assay type: toxicity, cell-based; settings: read-out: Ratio CC50/IC50
Leishmania donovani [19] = test: Induction of apoptosis in Leishmania donovani MHOM/IN/80/Dd8 promastigotes assessed as decrease in cytochrome c level in mitochondria at 50 uM incubated upto 48 hrs by immunoblot analysis; assay type: functional, organism-based; settings: TDE = time-dependent effect
Leishmania donovani [20] = test: Antileishmanial activity against Leishmania donovani MHOM/IN/80/Dd8 amastigotes harboring luciferase gene infected in mouse J774 cells assessed as inhibition of parasite viability at 25 uM incubated for 72 hrs by Steady-Glo reagent based luciferase assay relative to control; assay type: functional; settings: MHOM/IN/80/Dd8, J774
[21] = Metabolic stability in mouse liver microsomes assessed as elimination rate constant at 10 ug/ml incubated for 1 hrs in presence of NADPH by UPLC analysis; assay type: ADME, Microsome; settings: dose 10 µg/ml
Leishmania donovani [22] = test: Antileishmanial activity against Leishmania donovani MHOM/IN/80/Dd8 promastigotes harboring luciferase gene infected in mouse J774 cells assessed as inhibition of parasite viability at 50 uM incubated for 72 hrs by Steady-Glo reagent based luciferase assay relative to control; assay type: functional; settings: MHOM/IN/80/Dd8, J774
J774 [23] = test: Cytotoxicity against mouse macrophage J774 cells assessed as reduction in cell viability at 50 to 100 uM incubated for 72 hrs by MTT assay; assay type: toxicity, cell-based; settings: j774, 72 h, dose 50-100 µM
Leishmania donovani [24] = test: Induction of mitochondrial membrane potential loss in Leishmania donovani MHOM/IN/80/Dd8 promastigotes assessed as apoptotic cells at 50 uM incubated for 24 hrs by JC-1 dye staining based flow cytometry; assay type: functional
Leishmania donovani [25] = test: Antileishmanial activity against Leishmania donovani MHOM/IN/80/Dd8 promastigotes infected in Balb/c mouse assessed as inhibition organ parasite burden in liver at 6.25 mg/kg, ip for 7 days by Giemsa staining based microscopy; assay type: functional; settings: MHOM/IN/80/Dd8, 168 h, time 7 day
[26] = Stability of compound in SIF assessed as parent compound remaining at 10 ug/ml incubated for 2 hrs by UPLC analysis; assay type: ADME; settings: at 10 µg/mL, read-out: Stability
Leishmania donovani [27] = test: Antileishmanial activity against Leishmania donovani MHOM/IN/80/Dd8 promastigotes infected in Balb/c mouse assessed as inhibition organ parasite burden in spleen at 50 mg/kg, ip for 7 days by Giemsa staining based microscopy; assay type: functional; settings: MHOM/IN/80/Dd8, 168 h, time 7 day
J774 [28] = test: Cytotoxicity against mouse macrophage J774 cells assessed as reduction in cell viability at 6.25 to 25 uM incubated for 72 hrs by MTT assay; assay type: toxicity, cell-based; settings: j774, 72 h, dose 6.25-25 µM
[29] = Cytotoxicity against mouse macrophage J774 cells assessed as inhibition of cell viability incubated for 72 hrs by MTT assay; assay type: toxicity, cell-based
Leishmania donovani [30] = test: Induction of mitochondrial membrane potential loss in Leishmania donovani MHOM/IN/80/Dd8 promastigotes assessed as apoptotic cells at 50 uM incubated for 48 hrs by JC-1 dye staining based flow cytometry; assay type: functional
Leishmania donovani [31] = test: Antileishmanial activity against Leishmania donovani MHOM/IN/80/Dd8 promastigotes infected in Balb/c mouse assessed as inhibition organ parasite burden in liver at 50 mg/kg, ip for 7 days by Giemsa staining based microscopy; assay type: functional; settings: MHOM/IN/80/Dd8, 168 h, time 7 day
Leishmania donovani [32] = test: Antileishmanial activity against Leishmania donovani MHOM/IN/80/Dd8 promastigotes infected in Balb/c mouse assessed as inhibition organ parasite burden in spleen at 12.5 mg/kg, ip for 7 days by Giemsa staining based microscopy; assay type: functional; settings: MHOM/IN/80/Dd8, 168 h, time 7 day
[33] = Aqueous solubility of the compound incubated for 24 hrs by shake flask method; assay type: physicochemical; settings: water

Q: With `COc1ccc(-c2c3c(nc4ccc(OC)cc24)CN(C(C)(C)C(=O)NC(C)(C)C)C3=O)cc1` as the compound, how does the inhibition at 25 µM (Leishmania donovani [1]) read?
A: The inhibition at 25 µM was 85.4%.

Q: And the Activity (Leishmania donovani [2])?
A: Its Activity is “Active”.

Q: And the CC50 at 72 h [3]?
A: Its CC50 at 72 h is 63.7 µM.

Q: What about the Activity (Leishmania donovani [4]) of the same compound?
A: Its Activity is “Tde”.

Q: What about the microsomal CLint at 10 ug/ml [5] of the same compound?
A: The microsomal CLint at 10 ug/ml was 4.61 µL/min/mg.

Q: And the Activity (Leishmania donovani [6])?
A: The Activity was 58.4%.

Q: What about the selectivity ratio [7] of the same compound?
A: The selectivity ratio was 7.79.

Q: What about the IC50 (Leishmania donovani [8]) of the same compound?
A: Its IC50 is 8.36 µM.

Q: What about the IC50 (Leishmania donovani [9]) of the same compound?
A: The IC50 was 7.36 µM.

Q: And the remaining at 2 h, 10 ug/ml [10]?
A: Its remaining at 2 h, 10 ug/ml is 88.7%.

Q: What about the remaining at 2 h, 10 ug/ml [11] of the same compound?
A: Its remaining at 2 h, 10 ug/ml is 87.5%.

Q: What about the logP at 24 h [12] of the same compound?
A: The logP at 24 h was 2.7.

Q: And the remaining at 1 h, 10 ug/ml [13]?
A: The remaining at 1 h, 10 ug/ml was 86.8%.

Q: And the inhibition in vivo at 12.5 mg/kg (Leishmania donovani [14])?
A: The inhibition in vivo at 12.5 mg/kg was 56.2%.

Q: And the inhibition in vivo at 6.25 mg/kg (Leishmania donovani [15])?
A: The inhibition in vivo at 6.25 mg/kg was 42.4%.

Q: And the half-life at 10 ug/ml [16]?
A: The half-life at 10 ug/ml was 5.07 h.

Q: And the Activity (Leishmania donovani [17])?
A: The Activity was “Active”.

Q: What about the selectivity ratio [18] of the same compound?
A: The selectivity ratio was 7.62.

Q: And the Activity (Leishmania donovani [19])?
A: The Activity was “Tde”.

Q: What about the inhibition at 25 µM (Leishmania donovani [20]) of the same compound?
A: Its inhibition at 25 µM is 85.5%.

Q: What about the k el at 1 h, 10 ug/ml [21] of the same compound?
A: Its k el at 1 h, 10 ug/ml is 3.89e-05 s⁻¹.

Q: What about the inhibition at 50 µM (Leishmania donovani [22]) of the same compound?
A: The inhibition at 50 µM was 86.5%.

Q: What about the Activity (J774 [23]) of the same compound?
A: Its Activity is “>= 30%”.

Q: What about the Activity (Leishmania donovani [24]) of the same compound?
A: The Activity was 36%.

Q: And the inhibition in vivo at 6.25 mg/kg (Leishmania donovani [25])?
A: The inhibition in vivo at 6.25 mg/kg was 45.1%.

Q: What about the remaining at 2 h, 10 ug/ml [26] of the same compound?
A: Its remaining at 2 h, 10 ug/ml is 85.5%.

Q: And the inhibition in vivo at 50 mg/kg (Leishmania donovani [27])?
A: Its inhibition in vivo at 50 mg/kg is 63.4%.

Q: What about the Activity (J774 [28]) of the same compound?
A: Its Activity is “Non-Toxic”.

Q: What about the CC50 at 72 h [29] of the same compound?
A: Its CC50 at 72 h is 65.1 µM.

Q: And the Activity (Leishmania donovani [30])?
A: The Activity was 69.1%.

Q: And the inhibition in vivo at 50 mg/kg (Leishmania donovani [31])?
A: The inhibition in vivo at 50 mg/kg was 57.8%.

Q: And the inhibition in vivo at 12.5 mg/kg (Leishmania donovani [32])?
A: The inhibition in vivo at 12.5 mg/kg was 61.1%.

Q: And the solubility thermodynamic at 24 h [33]?
A: The solubility thermodynamic at 24 h was 157 µg/mL (≈ 340 µM).
